According to US7396837B2, “Antitumoral analogs of lamellarins” (Pharma Mar, S.A.U., priority 2002, dated 2008):
Where two headings read alike, the source gives them in different places.

Experiments:
Assay type in all cases: cell-based
IGROV = experiment: SRB colorimetric cell growth inhibition assay, IGROV; conditions: Homo sapiens, IGROV; for GI50: GI=growth inhibition, read-out: GI50 IGROV; for CC50: LC=cell killing (cytotoxic effect), read-out: LC50 IGROV; for IC (TGI): TGI=total growth inhibition (cytostatic effect), read-out: TGI IGROV
Summary of the method: (§1)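 Read-out: sulforhodamine B colorimetry of surviving cell mass after continued exposure of human tumour lines to sample. Values are means ± SD of three wells, expressed as GI, TGI or LC.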

HT-29 = experiment: SRB colorimetric cell growth inhibition assay, HT-29; conditions: Homo sapiens, HT-29, HT-29; for GI50: GI=growth inhibition, read-out: GI50 HT-29; for CC50: read-out: LC50 HT-29; for IC (TGI): read-out: TGI HT-29
Summary of the method: as §1

PANC-1 = experiment: SRB colorimetric cell growth inhibition assay, PANC-1; conditions: Homo sapiens, PANC-1, PANC-1; for GI50: GI=growth inhibition, read-out: GI50 PANC-1; for CC50: read-out: LC50 PANC-1; for IC (TGI): read-out: TGI PANC-1
Summary of the method: as §1

SKOV-3 = experiment: SRB colorimetric cell growth inhibition assay, SKOV-3; conditions: Homo sapiens; for GI50: SK-OV-3, SKOV-3, GI=growth inhibition, read-out: GI50 SKOV-3; for CC50 / IC (TGI): SK-OV-3, SKOV-3; for CC50: LC=cell killing (cytotoxic effect), read-out: LC50 SKOV-3; for IC (TGI): TGI=total growth inhibition (cytostatic effect), read-out: TGI SKOV-3
Summary of the method: (§2)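 Growth and viability quantified by sulforhodamine B staining in 96-well microplates. Triplicate wells give mean ± SD; derived endpoints are GI, TGI (cytostatic) and LC (cytotoxic).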

IGROV-ET = experiment: SRB colorimetric cell growth inhibition assay, IGROV-ET (ET-743 resistant); conditions: Homo sapiens, IGROV-ET; for GI50: GI=growth inhibition, read-out: GI50 IGROV-ET; for CC50: LC=cell killing (cytotoxic effect), read-out: LC50 IGROV-ET; for IC (TGI): TGI=total growth inhibition (cytostatic effect), read-out: TGI IGROV-ET
Summary of the method: as §1

LoVo-Dox = experiment: SRB colorimetric cell growth inhibition assay, LoVo-Dox (MDR); conditions: Homo sapiens, LOVO-DOX; for GI50: GI=growth inhibition, read-out: GI50 LOVO-DOX; for CC50: read-out: LC50 LOVO-DOX; for IC (TGI): read-out: TGI LOVO-DOX
Summary of the method: as §1

SK-MEL-28 = experiment: SRB colorimetric cell growth inhibition assay, SK-MEL-28; conditions: Homo sapiens, SK-MEL-28, MEL-28; for GI50: GI=growth inhibition, read-out: GI50 MEL-28; for CC50: LC=cell killing (cytotoxic effect), read-out: LC50 MEL-28; for IC (TGI): TGI=total growth inhibition (cytostatic effect), read-out: TGI MEL-28
Summary of the method: as §1

A-549 = experiment: SRB colorimetric cell growth inhibition assay, A-549; conditions: Homo sapiens, A549, A-549; for GI50: GI=growth inhibition, read-out: GI50 A-549; for CC50: read-out: LC50 A-549; for IC (TGI): read-out: TGI A-549
Summary of the method: as §1

DU-145 = experiment: SRB colorimetric cell growth inhibition assay, DU-145; conditions: Homo sapiens, DU-145, DU-145; for GI50: GI=growth inhibition, read-out: GI50 DU-145; for CC50: LC=cell killing (cytotoxic effect), read-out: LC50 DU-145; for IC (TGI): TGI=total growth inhibition (cytostatic effect), read-out: TGI DU-145
Summary of the method: as §1

LoVo = experiment: SRB colorimetric cell growth inhibition assay, LoVo; conditions: Homo sapiens, LoVo; for GI50: GI=growth inhibition, read-out: GI50 LOVO; for CC50: read-out: LC50 LOVO; for IC (TGI): read-out: TGI LOVO
Summary of the method: as §1

LNCaP = experiment: SRB colorimetric cell growth inhibition assay, LNCaP; conditions: Homo sapiens, LNCaP, LN-caP; for GI50: GI=growth inhibition, read-out: GI50 LN-caP; for CC50: LC=cell killing (cytotoxic effect), read-out: LC50 LN-caP; for IC (TGI): TGI=total growth inhibition (cytostatic effect), read-out: TGI LN-caP
Summary of the method: as §1

[1] = SRB colorimetric cell growth inhibition assay, H-MEC-1; conditions: human, H-MEC-1 cells, H-MEC-1; LC=cell killing (cytotoxic effect); read-out: LC50 H-MEC-1
Summary of the method: as §2

H-MEC-1 = experiment: as above; conditions: Homo sapiens, HMEC-1, H-MEC-1; for GI50: GI=growth inhibition; for IC (TGI): TGI=total growth inhibition (cytostatic effect), read-out: TGI H-MEC-1
Summary of the method: as §2

SK-BR-3 = experiment: SRB colorimetric cell growth inhibition assay, SK-BR-3; conditions: Homo sapiens, SK-BR-3, SK-BR-3; for GI50: GI=growth inhibition, read-out: GI50 SK-BR-3; for CC50: LC=cell killing (cytotoxic effect), read-out: LC50 SK-BR-3; for IC (TGI): TGI=total growth inhibition (cytostatic effect), read-out: TGI SK-BR-3
Summary of the method: as §1

K-562 = experiment: SRB colorimetric cell growth inhibition assay, K-562; conditions: Homo sapiens, K562, K-562; for GI50: GI=growth inhibition, read-out: GI50 K-562; for CC50: read-out: LC50 K-562; for IC (TGI): read-out: TGI K-562
Summary of the method: as §1

[2] = LC=cell killing (cytotoxic effect)
[3] = TGI=total growth inhibition (cytostatic effect)
[4] = cell killing (cytotoxic effect)
[5] = total growth inhibition (cytostatic effect)

COc1cc2c(cc1OC)-c1c(-c3ccc(OS(C)(=O)=O)c(OC)c3)c3c4cc(OC)c(OS(C)(=O)=O)cc4oc(=O)c3n1CC2 [Compound 92]
GI50 (IGROV): 3.13 µM | CC50 (IGROV): 14.1 µM | IC (TGI) (IGROV): 6.64 µM | GI50 (HT-29): 14.9 µM | CC50 (HT-29; [2]): 14.9 µM | IC (TGI) (HT-29; [3]): 14.9 µM | GI50 (PANC-1): 5.42 µM | CC50 (PANC-1; [2]): 14.9 µM | IC (TGI) (PANC-1; [3]): 14.9 µM | GI50 (SKOV-3): 7.61 µM | CC50 (SKOV-3): 14.9 µM | IC (TGI) (SKOV-3): 14.9 µM | GI50 (IGROV-ET): 6.85 µM | CC50 (IGROV-ET): 14.9 µM | IC (TGI) (IGROV-ET): 14.9 µM | GI50 (LoVo-Dox): 2.14 µM | CC50 (LoVo-Dox; [2]): 14.9 µM | IC (TGI) (LoVo-Dox; [3]): 5.96 µM | GI50 (SK-MEL-28): 4.75 µM | CC50 (SK-MEL-28): 14.9 µM | IC (TGI) (SK-MEL-28): 10.1 µM | GI50 (A-549): 14.9 µM | CC50 (A-549; [2]): 14.9 µM | IC (TGI) (A-549; [3]): 14.9 µM | GI50 (DU-145): 14.9 µM | CC50 (DU-145): 14.9 µM | IC (TGI) (DU-145): 14.9 µM | GI50 (LoVo): 7.52 µM | CC50 (LoVo; [2]): 14.9 µM | IC (TGI) (LoVo; [3]): 14.9 µM | GI50 (LNCaP): 0.167 µM | CC50 (LNCaP): 5.09 µM | IC (TGI) (LNCaP): 0.71 µM | CC50 [1]: 14.9 µM | GI50 (H-MEC-1): 14.2 µM | IC (TGI) (H-MEC-1): 14.9 µM | GI50 (SK-BR-3): 4.35 µM | CC50 (SK-BR-3): 14.9 µM | IC (TGI) (SK-BR-3): 11.6 µM | GI50 (K-562): 2.23 µM | CC50 (K-562; [2]): 14.9 µM | IC (TGI) (K-562; [3]): 13.8 µM

COc1cc2c(cc1OC)-c1c(-c3ccc(OC(=O)CCc4ccccc4)c(OC)c3)c3c4cc(OC)c(OC(=O)CCc5ccccc5)cc4oc(=O)c3n1CC2 [Compound 93]
GI50 (IGROV): 3.37 µM | CC50 (IGROV): 12.8 µM | IC (TGI) (IGROV): 7.08 µM | GI50 (HT-29): 12.8 µM | CC50 (HT-29; [4]): 12.8 µM | IC (TGI) (HT-29; [5]): 12.8 µM | GI50 (PANC-1): 12.8 µM | CC50 (PANC-1; [4]): 12.8 µM | IC (TGI) (PANC-1; [5]): 12.8 µM | GI50 (SKOV-3): 6.26 µM | CC50 (SKOV-3): 12.8 µM | IC (TGI) (SKOV-3): 12.8 µM | GI50 (IGROV-ET): 11.7 µM | CC50 (IGROV-ET): 12.8 µM | IC (TGI) (IGROV-ET): 12.8 µM | GI50 (LoVo-Dox): 3.39 µM | CC50 (LoVo-Dox; [4]): 12.8 µM | IC (TGI) (LoVo-Dox; [5]): 11.7 µM | GI50 (SK-MEL-28): 4.57 µM | CC50 (SK-MEL-28): 12.8 µM | IC (TGI) (SK-MEL-28): 12.8 µM | GI50 (A-549): 8.64 µM | CC50 (A-549; [4]): 12.8 µM | IC (TGI) (A-549; [5]): 12.8 µM | GI50 (DU-145): 12.8 µM | CC50 (DU-145): 12.8 µM | IC (TGI) (DU-145): 12.8 µM | GI50 (LoVo): 12.8 µM | CC50 (LoVo; [4]): 12.8 µM | IC (TGI) (LoVo; [5]): 12.8 µM | GI50 (LNCaP): 0.408 µM | CC50 (LNCaP): 7.08 µM | IC (TGI) (LNCaP): 1.27 µM | CC50 [1]: 12.8 µM | GI50 (H-MEC-1): 12.8 µM | IC (TGI) (H-MEC-1): 12.8 µM | GI50 (SK-BR-3): 4.95 µM | CC50 (SK-BR-3): 12.8 µM | IC (TGI) (SK-BR-3): 12.8 µM | GI50 (K-562): 1.62 µM | CC50 (K-562; [4]): 4.36 µM | IC (TGI) (K-562; [5]): 2.65 µM
